The text below walks through data of patent US4496572A, “Benzo-fused thromboxane synthetase inhibitors” (Pfizer Inc., priority 1981, dated 1985).

For one experiment, the system named is TxB2 production. The experiment in a line: TxB2 generation in clotted whole blood after i.v. dosing (method of Patrono et al, RIA). As to conditions: Oryctolagus cuniculus, iv; for inhibition at 0.3 mg/kg: 0.3 mg/kg i.v.; for inhibition at 0.1 mg/kg: 0.1 mg/kg i.v. It is filed as in vivo, rabbits. On the procedure: The method of Patrono et al is adapted to study the generation of TxB2 is whole blood samples removed from animals prior to and following drug treatment. Briefly, blood samples are taken into glass tubes and allowed to clot at 37° C. Serum is separated by centrifugation and the samples stored at -40° C. until assayed for TxB2, when appropriate dilutions of ethanol deproteinised samples are analysed by RIA. This technique is used in experiments with the test compounds to determine intravenous potency in anaesthetised rabbits:
Male New Zealand white rabbits (2.6-5.6 kg) are anaesthetised with sodium pentobarbitone (30 mg/kg i.v.) followed by urethane (500 mg/kg i.p.). After cannulation of the trachea, a carotid artery is catheterised for collection of blood samples. The catheter is kept patent by slow infusion (0.2 ml/minute) of sterile saline. Control carotid arterial blood samples are taken 30 and 5 minutes prior to administration of the test compound or vehicle (0.9% w/v NaCl, 0.2 ml/kg) via a marginal ear vein. Three groups of rabbits are used. The first group receive 0.03 mg/kg of the test compound followed, one hour later, by 0.1 mg/kg. Similarly, the second group receive 0.3 mg/kg, followed by 1 mg/kg. The third group receive vehicle, followed one hour later by a further vehicle injection. […] At each time point, a 1 ml blood sample is taken into a glass test tube, without anticoagulant, for TxB2 determination. For the latter, the blood sample is allowed to clot during a two hour incubation at 37° C. (which preliminary experiments had shown to give maximum TxB2 production) and the serum obtained by centrifugation. Serum samples are then processed through the TxB2 RIA after deproteinisation with ethanol and dilution with Isogel Tris buffer.

Another experiment has as its system prostacyclin synthetase. The settings on record: pre-incubation of the enzyme with the inhibitor; cited from earlier work.
Experiment [1] relates to human blood platelet aggregation. The settings on record: human blood platelets; cited from earlier work.
The conditions of experiment [2]: rabbit, intravenous arachidonic acid; cited from earlier work.
Another experiment has as its system aggregation of platelets. As to conditions: rats in vivo; cited from earlier work.

As to `Cc1c(Cc2cccnc2)sc2ccc(C(=O)O)cc12`, the inhibition (as a rule, the relative decrease from the control value, in per cent) at 0.3 mg/kg in the experiment on TxB2 production (2 min, 2 MIN post dose) was determined as 98%; in the experiment with TxB2 production (0.25 h, 15 MIN post dose), 99%; in the experiment with TxB2 production (0.75 h, 45 MIN post dose), 97%; in the experiment on TxB2 production (1.25 h, 75 MIN post dose), 83%. Also, the inhibition at 0.1 mg/kg in the experiment on TxB2 production (0.25 h, 15 MIN post dose) worked out at 96%; with TxB2 production (0.5 h, 30 MIN post dose), 85%.
As for 15-hydroperoxyarachidonic acid, the “inhibition of PGI2 production” value in the experiment on prostacyclin synthetase was “completely inhibited”.
Turning to `O=C(O)c1ccc2oc(Cn3ccnc3)c(Cl)c2c1`, the inhibition at 0.3 mg/kg with TxB2 production (2 min, 2 MIN post dose) amounted to 98%; with TxB2 production (0.25 h, 15 MIN post dose), 97%; with TxB2 production (0.75 h, 45 MIN post dose), 93%; with TxB2 production (1.25 h, 75 MIN post dose), 86%. Besides, the inhibition at 0.1 mg/kg stood at 88% in the experiment with TxB2 production (0.25 h, 15 MIN post dose) and 82% with TxB2 production (0.5 h, 30 MIN post dose).
`CC(=O)Oc1ccccc1C(=O)O` [aspirin]: in experiment [1], the “inhibitory activity in vitro against a variety of aggregating agents” value was “show inhibitory activity”. The “protection from the lethal effect of arachidonic acid injection” value in experiment [2] is listed as “protect the rabbit from the lethal effect”.
Take `O=C(O)c1ccc2sc(Cn3ccnc3)c(Cl)c2c1`: the inhibition at 0.3 mg/kg was found to be 99% with TxB2 production (2 min, 2 MIN post dose); 100% with TxB2 production (0.25 h, 15 MIN post dose); 100% with TxB2 production (0.75 h, 45 MIN post dose); 99% in the experiment with TxB2 production (1.25 h, 75 MIN post dose). For the same molecule, the inhibition at 0.1 mg/kg with TxB2 production (0.25 h, 15 MIN post dose) came out at 99%; with TxB2 production (0.5 h, 30 MIN post dose), 96%.
On to `Cc1c(Cc2cccnc2)sc2cc(C(=O)O)ccc12`, for which the inhibition at 0.3 mg/kg worked out at 90% in the experiment on TxB2 production (2 min, 2 MIN post dose); 91% in the experiment with TxB2 production (0.25 h, 15 MIN post dose); 71% in the experiment with TxB2 production (0.75 h, 45 MIN post dose); 52% with TxB2 production (1.25 h, 75 MIN post dose). In addition, the inhibition at 0.1 mg/kg in the experiment with TxB2 production (0.25 h, 15 MIN post dose) was 76%; in the experiment on TxB2 production (0.5 h, 30 MIN post dose), 46%.
On to `Cc1c(Cn2ccnc2)sc2ccc(C(=O)O)cc12`, for which the inhibition at 0.1 mg/kg in the experiment with TxB2 production (2 min, 2 MIN post dose) was determined as 100%; in the experiment with TxB2 production (0.25 h, 15 MIN post dose), 98%; in the experiment on TxB2 production (0.75 h, 45 MIN post dose), 100%; in the experiment with TxB2 production (1.25 h, 75 MIN post dose) it was 98%. Moreover, the inhibition at 0.3 mg/kg in the experiment on TxB2 production (0.25 h, 15 MIN post dose) amounted to 94%; in the experiment with TxB2 production (0.5 h, 30 MIN post dose) it was 95%.
Regarding `Cc1c(Cn2ccnc2)oc2ccc(C(=O)O)cc12`, the inhibition at 0.3 mg/kg in the experiment on TxB2 production (2 min, 2 MIN post dose) was determined as 92%; in the experiment with TxB2 production (0.25 h, 15 MIN post dose), 83%; with TxB2 production (0.75 h, 45 MIN post dose), 65%; in the experiment with TxB2 production (1.25 h, 75 MIN post dose), 51%. Besides, the inhibition at 0.1 mg/kg in the experiment on TxB2 production (0.25 h, 15 MIN post dose) is 47%; in the experiment on TxB2 production (0.5 h, 30 MIN post dose) it was 37%.
Regarding `O=C1C(CC[S+]([O-])c2ccccc2)C(=O)N(c2ccccc2)N1c1ccccc1` (centres unmarked) [sulphinpyrazone], in experiment [1], the “inhibitory activity in vitro against a variety of aggregating agents” value is listed as “show inhibitory activity”. Also, the “prevention of platelet aggregation in extra corporeal loop of the abdominal aorta” value in the experiment on aggregation of platelets is recorded as “prevent the aggregation of platelets”. In addition, the “protection from the lethal effect of arachidonic acid injection” value in experiment [2] is given as “protect the rabbit from the lethal effect”.
`Cc1c(Cn2ccnc2)sc2cc(C(=O)O)ccc12`: the inhibition at 0.3 mg/kg worked out at 100% in the experiment on TxB2 production (2 min, 2 MIN post dose); 100% in the experiment with TxB2 production (0.25 h, 15 MIN post dose); 100% in the experiment on TxB2 production (0.75 h, 45 MIN post dose); 100% with TxB2 production (1.25 h, 75 MIN post dose). Besides, the inhibition at 0.1 mg/kg with TxB2 production (0.25 h, 15 MIN post dose) came to 100%; in the experiment on TxB2 production (0.5 h, 30 MIN post dose), 100%.
Turning to `O=C(O)c1ccc2sc(Cn3ccnc3)cc2c1`, the inhibition at 0.3 mg/kg with TxB2 production (0.25 h, 15 MIN post dose) is 96%; in the experiment with TxB2 production (0.5 h, 30 MIN post dose), 89%.
On to `O=C(O)c1ccc2oc(Cn3ccnc3)c(Br)c2c1`, for which the inhibition at 0.3 mg/kg came to 87% in the experiment on TxB2 production (2 min, 2 MIN post dose); 84% in the experiment on TxB2 production (0.25 h, 15 MIN post dose); 65% in the experiment with TxB2 production (0.75 h, 45 MIN post dose); 41% in the experiment with TxB2 production (1.25 h, 75 MIN post dose). Besides, the inhibition at 0.1 mg/kg with TxB2 production (0.25 h, 15 MIN post dose) is 52%; in the experiment with TxB2 production (0.5 h, 30 MIN post dose), 33%.
Regarding `Cc1c(Sc2cccnc2)sc2ccc(C(=O)O)cc12`, the inhibition at 0.3 mg/kg was determined as 98% with TxB2 production (2 min, 2 MIN post dose); 81% in the experiment on TxB2 production (0.25 h, 15 MIN post dose); 36% with TxB2 production (0.75 h, 45 MIN post dose); 33% with TxB2 production (1.25 h, 75 MIN post dose). The inhibition at 0.1 mg/kg in the experiment with TxB2 production (0.25 h, 15 MIN post dose) came to 29%; with TxB2 production (0.5 h, 30 MIN post dose), 22%.
`Cc1c(Cn2ccnc2)n(C)c2ccc(C(=O)O)cc12`: the inhibition at 0.3 mg/kg with TxB2 production (2 min, 2 MIN post dose) stood at 99%; in the experiment on TxB2 production (0.25 h, 15 MIN post dose), 95%; in the experiment with TxB2 production (0.75 h, 45 MIN post dose), 93%; in the experiment on TxB2 production (1.25 h, 75 MIN post dose) it was 81%. Besides, the inhibition at 0.1 mg/kg with TxB2 production (0.25 h, 15 MIN post dose) came out at 85%; in the experiment with TxB2 production (0.5 h, 30 MIN post dose) it was 84%.
For the molecule `Cc1c(Cc2cccnc2)ccc2ccc(C(=O)O)cc12`, the inhibition at 0.3 mg/kg in the experiment on TxB2 production (2 min, 2 MIN post dose) came out at 99%; in the experiment with TxB2 production (0.25 h, 15 MIN post dose), 98%; with TxB2 production (0.75 h, 45 MIN post dose) it was 95%; in the experiment with TxB2 production (1.25 h, 75 MIN post dose) it was 97%. Further, the inhibition at 0.1 mg/kg with TxB2 production (0.25 h, 15 MIN post dose) amounted to 95%; with TxB2 production (0.5 h, 30 MIN post dose) it was 92%.
Regarding `CSc1c(Cn2ccnc2)sc2ccc(C(=O)O)cc12`, the inhibition at 0.3 mg/kg with TxB2 production (2 min, 2 MIN post dose) is 99%; in the experiment with TxB2 production (0.25 h, 15 MIN post dose) it was 98%; with TxB2 production (0.75 h, 45 MIN post dose), 97%; in the experiment with TxB2 production (1.25 h, 75 MIN post dose) it was 95%. For the same molecule, the inhibition at 0.1 mg/kg was determined as 93% with TxB2 production (0.25 h, 15 MIN post dose) and 95% in the experiment on TxB2 production (0.5 h, 30 MIN post dose).
